Calls of active or inactive are those of the source. No rule for the calls is given here.
Target: Neuropeptide Y receptor type 1 (Homo sapiens) (UniProt P25929)
Assay: IC50 of human NPY-Y1 blockers – cell-based, dose response (AID 1277)
Conditions: NPY-Y1 expressing cells, antagonist mode

Sequence of Neuropeptide Y receptor type 1 (Homo sapiens) (P25929 whole entry, looked up): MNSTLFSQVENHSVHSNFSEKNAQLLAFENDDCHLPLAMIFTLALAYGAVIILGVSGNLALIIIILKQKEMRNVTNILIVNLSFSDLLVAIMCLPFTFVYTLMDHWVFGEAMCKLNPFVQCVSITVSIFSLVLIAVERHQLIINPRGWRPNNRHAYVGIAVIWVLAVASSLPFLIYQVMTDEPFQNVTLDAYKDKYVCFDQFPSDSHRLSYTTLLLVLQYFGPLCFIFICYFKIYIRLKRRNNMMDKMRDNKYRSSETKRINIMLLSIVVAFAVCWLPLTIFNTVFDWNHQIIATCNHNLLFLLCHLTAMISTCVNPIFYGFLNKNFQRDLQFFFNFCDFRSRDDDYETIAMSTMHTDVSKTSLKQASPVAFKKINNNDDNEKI

IC50	Structure (SMILES)
< 35 µM (inactive)	CC(C)CC(c1nnnn1C1CCCC1)N1CCN(c2ccccc2F)CC1 (centres undefined)
< 35 µM (inactive)	Cc1cc(C(=O)CSc2nc3ccccc3c(=O)n2C)c(C)n1CC1CCCO1 (centres undefined)
< 35 µM (inactive)	COc1cccc(Oc2cn[nH]c2-c2ccc(O)cc2O)c1
< 35 µM (inactive)	Cn1ccnc1C1CCCCN1Cc1nc(-c2ccc3c(c2)OCO3)no1 (centres undefined)

Source: PubChem BioAssay AID1277 (The Scripps Research Institute Molecular Screening Center, 2008)
